The text below walks through data of US20240239806A1, “COMPOUNDS, COMPOSITIONS AND METHODS OF TREATING DISORDERS” (Chengdu Anticancer Bioscience, Ltd., priority 2021, published 2024).

“Also recorded” adds a separate entry of the source.

One experiment has as its system NCI-N87. Put plainly: MECP in cancer cell line. Format: cell-based. Conditions: Homo sapiens. The method in brief: (§1)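 DMEM, 5% FBS, 37 °C, 5% CO2; dose range 1 nM–30 μM; endpoints MI (24 h), polyploidy (48 h), 72 h DNA content by imaging; categorical A–D output.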
Usually minimal effective concentration stands for the smallest amount tested that counted as effective. As to `COC(=O)c1cc(Oc2ncnc3cc[nH]c23)cc(C(=O)OC)c1` [Compound 36, dimethyl 5-((5H-pyrrolo[3,2-d]pyrimidin-4-yl)oxy)isophthalate], the minimal effective concentration was 0.001 to 1 µM.

`COC(=O)c1cc(OC)cc(Oc2ncnc3ccsc23)c1` [Compound 37, methyl 3-methoxy-5-(thieno[3,2-d]pyrimidin-4-yloxy)benzoate]: the minimal effective concentration was in the range of 0.001 to 1 µM.

The molecule `COC(=O)c1cc(OC)cc(Oc2ncnc3cc[nH]c23)c1` [Compound 34, methyl 3-((5H-pyrrolo[3,2-d]pyrimidin-4-yl)oxy)-5-methoxybenzoate] had a minimal effective concentration of 0.001 to 1 µM.

`COC(=O)c1cc(Oc2ncnc3ccsc23)cc(C(=O)OC)c1` [Compound 39, dimethyl 5-(thieno[3,2-d]pyrimidin-4-yloxy)isophthalate] gave a minimal effective concentration of 0.001 to 1 µM.

`COC(=O)c1cc(OC)cc(Oc2ncnc3cc(OC)c(OC)cc23)c1` [Compound 29]: the minimal effective concentration lay in the range of 0.001 to 1 µM.

Another experiment concerns DU145. In words: MTT assay of cellular proliferation. The experiment is classed as cell-based. Conditions: Homo sapiens, DU-145, 50% inhibition of cellular proliferation. A digest of the protocol: (§2)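 Compound dosing: 1 nM to 30 μM on subconfluent (20-30%) cultures in DMEM, 5% FBS. Readout was MTT reduction over 3-4 h, formazan at A570; EC50 derived.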
(In general: Tetrazolium assays rely on reduction of a dye to a coloured formazan, in cell work by metabolically active cells.)
By EC50 is commonly meant the concentration at which the effect is half-maximal. In turn, `COC(=O)c1cc(Oc2ncnc3cc[nH]c23)cc(C(=O)OC)c1` [Compound 36, dimethyl 5-((5H-pyrrolo[3,2-d]pyrimidin-4-yl)oxy)isophthalate] came in with a 50% effective concentration (EC50) of 1 to 1000 nM.

Turning to `COC(=O)c1cc(OC)cc(Oc2ncnc3ccsc23)c1` [Compound 37, methyl 3-methoxy-5-(thieno[3,2-d]pyrimidin-4-yloxy)benzoate], the EC50 fell in the range of 1 to 1000 nM.

Turning to `COC(=O)c1cc(OC)cc(Oc2ncnc3cc[nH]c23)c1` [Compound 34, methyl 3-((5H-pyrrolo[3,2-d]pyrimidin-4-yl)oxy)-5-methoxybenzoate], the EC50 lay within 1 to 1000 nM.

`COC(=O)c1cc(Oc2ncnc3ccsc23)cc(C(=O)OC)c1` [Compound 39, dimethyl 5-(thieno[3,2-d]pyrimidin-4-yloxy)isophthalate]: the concentration for a half-maximal effect (EC50) fell in the range of 1 to 1000 nM.

`COC(=O)c1cc(OC)cc(Oc2ncnc3cc(OC)c(OC)cc23)c1` [Compound 29]: the EC50 was 1 to 1000 nM.

In the next experiment the test system is NCI-N87. Put plainly: MTT assay of cellular proliferation. To be noted: Homo sapiens, 50% inhibition of cellular proliferation. The experiment is classed as cell-based. A digest of the protocol:
as §2
In the case of `COC(=O)c1cc(Oc2ncnc3cc[nH]c23)cc(C(=O)OC)c1` [Compound 36, dimethyl 5-((5H-pyrrolo[3,2-d]pyrimidin-4-yl)oxy)isophthalate], the concentration giving a half-maximal response (EC50) lay in the range of 1 to 1000 nM.

As to `COC(=O)c1cc(OC)cc(Oc2ncnc3ccsc23)c1` [Compound 37, methyl 3-methoxy-5-(thieno[3,2-d]pyrimidin-4-yloxy)benzoate], the EC50 lay within 1 to 1000 nM.

Consider `COC(=O)c1cc(OC)cc(Oc2ncnc3cc[nH]c23)c1` [Compound 34, methyl 3-((5H-pyrrolo[3,2-d]pyrimidin-4-yl)oxy)-5-methoxybenzoate], for which the EC50 lay in the range of 1 to 1000 nM.

`COC(=O)c1cc(Oc2ncnc3ccsc23)cc(C(=O)OC)c1` [Compound 39, dimethyl 5-(thieno[3,2-d]pyrimidin-4-yloxy)isophthalate] registered a 50% effective concentration (EC50) of 1 to 1000 nM.

Regarding `COC(=O)c1cc(OC)cc(Oc2ncnc3cc(OC)c(OC)cc23)c1` [Compound 29], the concentration giving a half-maximal response (EC50) lay in the range of 1 to 1000 nM.

For another experiment, the system named is SW480. In words: MTT assay of cellular proliferation. Format: cell-based. Conditions: Homo sapiens, 50% inhibition of cellular proliferation. A digest of the protocol:
as §2
`COC(=O)c1cc(OC)cc(Oc2ncnc3ccsc23)c1` [Compound 37, methyl 3-methoxy-5-(thieno[3,2-d]pyrimidin-4-yloxy)benzoate] yielded an EC50 of 1 to 1000 nM.

The molecule `COC(=O)c1cc(OC)cc(Oc2ncnc3cc[nH]c23)c1` [Compound 34, methyl 3-((5H-pyrrolo[3,2-d]pyrimidin-4-yl)oxy)-5-methoxybenzoate] showed an EC50 of 1000 to 10000 nM.

`COC(=O)c1cc(OC)cc(Oc2ncnc3cc(OC)c(OC)cc23)c1` [Compound 29] displayed an EC50 of 1000 to 10000 nM.

For a further experiment, the system named is Calu-6. In words: MTT assay of cellular proliferation. The experiment is classed as cell-based. Conditions: Homo sapiens; Calu-6, MTT, 50% inhibition of cellular proliferation. The method in brief: as §2
Take `COC(=O)c1cc(Oc2ncnc3cc[nH]c23)cc(C(=O)OC)c1` [Compound 36, dimethyl 5-((5H-pyrrolo[3,2-d]pyrimidin-4-yl)oxy)isophthalate]: the concentration for a half-maximal effect (EC50) lay within 1 to 1000 nM.

`COC(=O)c1cc(OC)cc(Oc2ncnc3ccsc23)c1` [Compound 37, methyl 3-methoxy-5-(thieno[3,2-d]pyrimidin-4-yloxy)benzoate] showed a concentration for a half-maximal effect (EC50) of 1 to 1000 nM.

Regarding `COC(=O)c1cc(OC)cc(Oc2ncnc3cc[nH]c23)c1` [Compound 34, methyl 3-((5H-pyrrolo[3,2-d]pyrimidin-4-yl)oxy)-5-methoxybenzoate], the EC50 was 1 to 1000 nM.

In turn, `COC(=O)c1cc(Oc2ncnc3ccsc23)cc(C(=O)OC)c1` [Compound 39, dimethyl 5-(thieno[3,2-d]pyrimidin-4-yloxy)isophthalate] registered an EC50 of 1 to 1000 nM.

The molecule `COC(=O)c1cc(OC)cc(Oc2ncnc3cc(OC)c(OC)cc23)c1` [Compound 29] registered a concentration giving a half-maximal response (EC50) of 1 to 1000 nM.

A further experiment has as its system A549. Put plainly: MTT assay of cellular proliferation. To be noted: Homo sapiens, 50% inhibition of cellular proliferation. The experiment is classed as cell-based. The method in brief: as §2
In turn, `COC(=O)c1cc(Oc2ncnc3cc[nH]c23)cc(C(=O)OC)c1` [Compound 36, dimethyl 5-((5H-pyrrolo[3,2-d]pyrimidin-4-yl)oxy)isophthalate] registered an EC50 of more than 30000 nM.

In turn, `COC(=O)c1cc(OC)cc(Oc2ncnc3ccsc23)c1` [Compound 37, methyl 3-methoxy-5-(thieno[3,2-d]pyrimidin-4-yloxy)benzoate] registered a 50% effective concentration (EC50) of more than 30000 nM.

Molecule `COC(=O)c1cc(OC)cc(Oc2ncnc3cc[nH]c23)c1` [Compound 34, methyl 3-((5H-pyrrolo[3,2-d]pyrimidin-4-yl)oxy)-5-methoxybenzoate] showed an EC50 of more than 30000 nM.

The molecule `COC(=O)c1cc(Oc2ncnc3ccsc23)cc(C(=O)OC)c1` [Compound 39, dimethyl 5-(thieno[3,2-d]pyrimidin-4-yloxy)isophthalate] gave a concentration giving a half-maximal response (EC50) of more than 30000 nM.

On to `COC(=O)c1cc(OC)cc(Oc2ncnc3cc(OC)c(OC)cc23)c1` [Compound 29], for which the concentration for a half-maximal effect (EC50) is more than 30000 nM.

The test system of another experiment is NCI-H2170. Put plainly: MTT assay of cellular proliferation. The experiment is classed as cell-based. Conditions: Homo sapiens, 50% inhibition of cellular proliferation. The method in brief: as §2
With `COC(=O)c1cc(Oc2ncnc3cc[nH]c23)cc(C(=O)OC)c1` [Compound 36, dimethyl 5-((5H-pyrrolo[3,2-d]pyrimidin-4-yl)oxy)isophthalate], the concentration for a half-maximal effect (EC50) is 1 to 1000 nM.

For the molecule `COC(=O)c1cc(OC)cc(Oc2ncnc3ccsc23)c1` [Compound 37, methyl 3-methoxy-5-(thieno[3,2-d]pyrimidin-4-yloxy)benzoate], the 50% effective concentration (EC50) was in the range of 1 to 1000 nM.

Turning to `COC(=O)c1cc(OC)cc(Oc2ncnc3cc[nH]c23)c1` [Compound 34, methyl 3-((5H-pyrrolo[3,2-d]pyrimidin-4-yl)oxy)-5-methoxybenzoate], the EC50 is 1 to 1000 nM.

Consider `COC(=O)c1cc(Oc2ncnc3ccsc23)cc(C(=O)OC)c1` [Compound 39, dimethyl 5-(thieno[3,2-d]pyrimidin-4-yloxy)isophthalate], for which the EC50 was 1000 to 10000 nM.

Take `COC(=O)c1cc(OC)cc(Oc2ncnc3cc(OC)c(OC)cc23)c1` [Compound 29]: the EC50 was 1 to 1000 nM.

The test system of a further experiment is T98G. Put plainly: MECP in cancer cell line. The experiment is classed as cell-based. To be noted: Homo sapiens. The method in brief:
as §1
Consider `COC(=O)c1cc(Oc2ncnc3cc[nH]c23)cc(C(=O)OC)c1` [Compound 36, dimethyl 5-((5H-pyrrolo[3,2-d]pyrimidin-4-yl)oxy)isophthalate], for which the minimal effective concentration lay within 0.001 to 1 µM.

`COC(=O)c1cc(OC)cc(Oc2ncnc3ccsc23)c1` [Compound 37, methyl 3-methoxy-5-(thieno[3,2-d]pyrimidin-4-yloxy)benzoate] returned a minimal effective concentration of 1 to 10 µM.

As for `COC(=O)c1cc(OC)cc(Oc2ncnc3cc[nH]c23)c1` [Compound 34, methyl 3-((5H-pyrrolo[3,2-d]pyrimidin-4-yl)oxy)-5-methoxybenzoate], the minimal effective concentration fell in the range of 1 to 10 µM.

For `COc1cc(OC)cc(Oc2ccnc3ccccc23)c1` [Compound 7, 4-(3,5-dimethoxyphenoxy)quinoline], the minimal effective concentration lay within 0.001 to 1 µM.

`COC(=O)c1cc(Oc2ncnc3ccsc23)cc(C(=O)OC)c1` [Compound 39, dimethyl 5-(thieno[3,2-d]pyrimidin-4-yloxy)isophthalate] came in with a minimal effective concentration of 0.001 to 1 µM.

Take `COC(=O)c1cc(OC)cc(Oc2ncnc3cc(OC)c(OC)cc23)c1` [Compound 29]: the minimal effective concentration was in the range of 1 to 10 µM.

In a further experiment the test system is human lung cancer cell line NCI-H23. Put plainly: Colony formation assay of long-term effect. Conditions: exposed for three days, drug-free medium until 12 days; compared with AZD1152. Format: cell-based. An excerpt:
Acute cytotoxicity immediately determined after short-term exposure to antimitotic agents often underestimates their potency, because some cancer cells might not die quickly after suffering mitotic defects such as an arrest in mitosis or a cytokinetic failure. Instead, after exposed to antimitotic agents, cells might face multiple possibilities that adversely affect their viability and proliferation in long-term such as permanent arrest of proliferation due to the development of senescence and nonapoptotic cell death by excessive autophagy. Only a small fraction of cells pretreated with an antimitotic agent might resume proliferation and divide to generate viable daughter cells that form colonies. Assay of the ability of cells to form colonies after being exposed to an anticancer agent for a short period of time represents a more accurate approach to document the potency of antimitotic agents. The human lung cancer cell line NCI-H23 in sub-confluence was exposed to compounds #7, #36, and #39 for three days and then transferred to drug-free fresh medium once every 3 days until 12 days after the initiation of treatment. At the end point, cells were photographed after fixed and stained with crystal violet.
`COC(=O)c1cc(Oc2ncnc3cc[nH]c23)cc(C(=O)OC)c1` [Compound 36, dimethyl 5-((5H-pyrrolo[3,2-d]pyrimidin-4-yl)oxy)isophthalate]: the “long-term proliferative potential of NCI-H23 cells (colony formation)” value (from here on “long-term proliferative potential”) was “Suppress the Long-Term Proliferative Potential; also recorded: inhibited the long-term proliferative potential”.

For the molecule `COc1cc(OC)cc(Oc2ccnc3ccccc23)c1` [Compound 7, 4-(3,5-dimethoxyphenoxy)quinoline], the “long-term proliferative potential” value is on record as “Suppress the Long-Term Proliferative Potential; also recorded: inhibited the long-term proliferative potential”.

As for `COC(=O)c1cc(Oc2ncnc3ccsc23)cc(C(=O)OC)c1` [Compound 39, dimethyl 5-(thieno[3,2-d]pyrimidin-4-yloxy)isophthalate], the “long-term proliferative potential” value is recorded as “Suppress the Long-Term Proliferative Potential; also recorded: inhibited the long-term proliferative potential”.
